Patent US10259833B2, “Natural lipids containing non-oxidizable fatty acids” (Bergen Teknologioverføring AS, priority 2013, dated 2019)

Experiments:
[1] = degradation time in vivo of ω-oxidation-blocked fatty acid analogue; conditions: triple bond at the methyl end blocks ω-oxidation
Text: ω-oxidation is believed to be the main pathway for degradation of the fatty acid analogues as described with a block in the X position. Fatty acid analogues in which R′ was changed by introducing a triple bond at the methyl end of the fatty acid analogue block ω-oxidation. […] Thus, this modification finds use in embodiments of the technology to potentiate the effects of the β-oxidizable fa acid analogues by further slowing down their breakdown.

PPARγ = target: T1, PPARγ (Homo sapiens, UniProt P37231); conditions: cited from earlier work
T1 sequence (P37231 1-505): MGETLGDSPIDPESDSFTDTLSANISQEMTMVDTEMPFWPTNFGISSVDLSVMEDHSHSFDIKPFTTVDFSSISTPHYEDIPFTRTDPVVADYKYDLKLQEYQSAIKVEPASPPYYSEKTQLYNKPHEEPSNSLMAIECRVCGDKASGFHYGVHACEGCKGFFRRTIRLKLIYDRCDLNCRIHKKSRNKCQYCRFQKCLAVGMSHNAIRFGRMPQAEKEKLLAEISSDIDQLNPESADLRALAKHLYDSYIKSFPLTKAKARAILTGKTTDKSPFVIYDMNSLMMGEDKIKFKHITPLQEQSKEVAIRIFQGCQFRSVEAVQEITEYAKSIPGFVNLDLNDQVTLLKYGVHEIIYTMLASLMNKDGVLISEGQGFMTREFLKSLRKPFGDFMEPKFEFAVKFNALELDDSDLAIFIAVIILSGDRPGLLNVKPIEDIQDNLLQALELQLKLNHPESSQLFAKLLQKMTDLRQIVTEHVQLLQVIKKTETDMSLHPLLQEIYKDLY

PPARα = target: T2, PPARα (Homo sapiens, UniProt Q07869); conditions: cited from earlier work
T2 sequence (Q07869 1-468): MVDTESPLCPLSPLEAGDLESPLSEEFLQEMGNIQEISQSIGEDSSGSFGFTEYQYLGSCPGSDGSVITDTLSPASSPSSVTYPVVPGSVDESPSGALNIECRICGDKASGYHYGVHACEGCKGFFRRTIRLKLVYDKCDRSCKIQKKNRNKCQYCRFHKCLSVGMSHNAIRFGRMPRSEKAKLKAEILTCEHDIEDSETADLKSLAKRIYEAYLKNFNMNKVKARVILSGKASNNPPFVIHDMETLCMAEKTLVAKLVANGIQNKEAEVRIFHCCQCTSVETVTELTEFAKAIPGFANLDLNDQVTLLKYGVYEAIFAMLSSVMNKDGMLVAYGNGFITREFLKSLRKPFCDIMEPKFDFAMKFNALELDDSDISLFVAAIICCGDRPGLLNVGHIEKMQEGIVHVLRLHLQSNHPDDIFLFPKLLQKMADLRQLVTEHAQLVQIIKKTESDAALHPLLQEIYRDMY

[2] = system: peripheral mononuclear cells; conditions: cited from earlier work
interleukin-2 = conditions: cited from earlier work
[3] = rats, 12 weeks; cited from earlier work
[4] = TTA alone; cited from earlier work
cancer cell lines = conditions: many cancer cell lines; cited from earlier work
PPARβ = target: T3, PPARβ (Homo sapiens, UniProt Q03181); conditions: cited from earlier work
T3 sequence (Q03181 1-441): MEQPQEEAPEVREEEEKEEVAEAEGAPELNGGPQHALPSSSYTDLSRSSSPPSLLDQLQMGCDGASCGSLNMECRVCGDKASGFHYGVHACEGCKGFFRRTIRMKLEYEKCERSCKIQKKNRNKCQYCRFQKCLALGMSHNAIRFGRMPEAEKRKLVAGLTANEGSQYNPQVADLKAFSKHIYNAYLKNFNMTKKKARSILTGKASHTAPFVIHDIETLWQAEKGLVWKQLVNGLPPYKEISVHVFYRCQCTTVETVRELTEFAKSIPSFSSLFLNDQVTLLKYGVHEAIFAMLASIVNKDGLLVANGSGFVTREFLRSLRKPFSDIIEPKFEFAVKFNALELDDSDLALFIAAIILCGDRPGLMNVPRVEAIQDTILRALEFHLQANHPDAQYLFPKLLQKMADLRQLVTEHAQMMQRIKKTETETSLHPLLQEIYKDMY

acyl-CoA oxidase = conditions: substance alone; cited from earlier work
[5] = moderate doses, within days of treatment; cited from earlier work
[6] = system: mitochondrial β-oxidation in the liver; conditions: sulfur in 3, 5 or 7 position relative to carboxyl end; cited from earlier work

CC#CCCCCCCCCCCCSCC [3-thia-15-heptadecyne]
degradation time in vivo [1]: substantially increased degradation time

CCCCCCCCCCCCCCSCC(=O)O [TTA, tetradecylthioacetic acid]
PPARγ activation (PPARγ): activate | PPARα ligand (PPARα): potent ligands | PHA stimulated proliferation of peripheral mononuclear cells [2]: suppressing | release of interleukin-2 (interleukin-2): depressing the release | hepatic and plasma content of monounsaturated fatty acids (mainly oleic acid) [3]: nearly doubled | polyunsaturated fatty acids (mainly linoleic acid and DHA) [3]: decreased | effect on plasma triacylglycerol level [4]: reduces plasma triacylglycerol level | proliferation of cancer cell lines (cancer cell lines): reduce proliferation | PPARβ activation (PPARβ): activate | effect on acyl-CoA oxidase activity (acyl-CoA oxidase): large increase | plasma cholesterol and triacylglycerol levels [5]: decreases

CCCCCCCCCCCCCCCC(=O)O [palmitic acid]
mitochondrial β-oxidation activity [6]: 0.47
